From patent publication US20240246946A1, “MODULATORS OF TREX1” (Constellation Pharmaceuticals, Inc., priority 2021, published 2024)

Legend:
full length mouse TREX1 = biological target: T1, full length mouse TREX1 (Mus musculus, UniProt Q91XB0); experiment: mTREX1 Biochemical Assay (fluorescence, dsDNA substrate degradation); details: biochemical, read-out: mTREX1 IC50
T1 construct: N-terminally His-Tev tagged full length mouse TREX1; made in house; host or cells: E. coli
T1 sequence (Q91XB0 1-314): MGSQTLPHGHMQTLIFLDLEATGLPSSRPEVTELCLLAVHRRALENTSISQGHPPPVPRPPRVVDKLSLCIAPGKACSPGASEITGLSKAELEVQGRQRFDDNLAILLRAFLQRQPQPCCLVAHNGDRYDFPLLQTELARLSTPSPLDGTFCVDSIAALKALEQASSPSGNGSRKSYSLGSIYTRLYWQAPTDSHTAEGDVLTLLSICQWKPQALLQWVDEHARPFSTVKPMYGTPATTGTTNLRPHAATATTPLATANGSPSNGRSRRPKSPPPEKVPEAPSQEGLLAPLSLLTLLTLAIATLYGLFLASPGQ
Procedure: (§1) Degradation of the dsDNA liberates free fluorophore to produce a fluorescent signal. Specifically, 7.5 μL of N-terminally His-Tev tagged full length mouse TREX1 (expressed in E. coli and purified in house) in reaction buffer (50 mM Tris, 150 mM NaCl, 2 mM DTT, 0.1 mg/mL BSA, 0.01% (w/v) Tween-20, 5 mM MgCl2, pH 7.4) was added to a 384-well Black ProxiPlate Plus (PerkinElmer) which already contained compound (150 nL) at varying concentrations as a 10 point dose-response in DMSO. The plate was incubated at 25° C. for 4 hours. Reactions were initiated by adding 7.5 μL of dsDNA substrate (Strand A: 5′ TEX615/GCT AGG CAG 3′; Strand B: 5′ CTG CCT AGC/IAbRQSp (Integrated DNA Technologies)) in reaction buffer. Final concentrations were 6 pM TREX1, 60 nM dsDNA substrate in reaction buffer with 1.0% DMSO (v/v). After 18 hours at 25° C., reactions were quenched by the addition of 2 μL of 500 mM EDTA.

full length human TREX1 = biological target: T2, full length human TREX1 (Homo sapiens, UniProt Q9NSU2); experiment: hTREX1 Biochemical Assay (fluorescence, dsDNA substrate degradation); details: biochemical, read-out: hTREX1 IC50
T2 construct: N-terminally His-Tev tagged full length human TREX1; made in house; host or cells: E. coli
T2 sequence (Q9NSU2 1-314): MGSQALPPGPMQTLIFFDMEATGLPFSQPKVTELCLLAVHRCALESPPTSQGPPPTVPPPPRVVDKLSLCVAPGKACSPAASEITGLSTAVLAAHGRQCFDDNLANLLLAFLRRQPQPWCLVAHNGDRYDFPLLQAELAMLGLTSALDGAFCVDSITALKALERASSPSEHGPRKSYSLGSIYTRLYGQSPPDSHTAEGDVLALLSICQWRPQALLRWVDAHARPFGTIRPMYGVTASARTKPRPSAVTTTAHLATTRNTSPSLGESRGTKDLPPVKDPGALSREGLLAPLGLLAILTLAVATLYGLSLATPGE
Procedure: as §1, with “length human” for “length mouse”, “were 4” for “were 6”

| IC50 (full length mouse TREX1) | IC50 (full length human TREX1) | SMILES |
| --- | --- | --- |
| > 10 nM | > 10 nM | CC(c1nc(C(=O)Nc2cnoc2)c(O)c(=O)n1C)C(c1cnn(C)c1)c1ccc(C(F)(F)F)cc1C#N (single isomer, unassigned) [Example 30 D1E2] |
| > 10 nM | > 10 nM | CC(c1nc(C(=O)Nc2cnoc2)c(O)c(=O)n1C)C(c1cnn(C)c1)c1ccc(C(F)(F)F)cc1C#N (single isomer, unassigned) [Example 30 D2E1] |
| > 10 nM | > 10 nM | CC(c1nc(C(=O)Nc2cnoc2)c(O)c(=O)n1C)C(c1cnn(C)c1)c1ccc(C(F)(F)F)cc1C#N (single isomer, unassigned) [Example 30 D2E2] |
| > 10 nM | > 10 nM | CC(c1nc(C(=O)Nc2cnoc2)c(O)c(=O)n1C)C(c1cnn(CCN2CCNCC2)c1)c1ccccc1C#N (single isomer, unassigned) [Example 31 D1E2] |
| > 10 nM | > 10 nM | CC(c1nc(C(=O)Nc2cnoc2)c(O)c(=O)n1C)C(c1cnn(CCN2CCNCC2)c1)c1ccccc1C#N (single isomer, unassigned) [Example 31 D2E1] |
| > 10 nM | > 10 nM | CC(c1nc(C(=O)Nc2cnoc2)c(O)c(=O)n1C)C(c1cnn(CCN2CCNCC2)c1)c1ccccc1C#N (single isomer, unassigned) [Example 31 D2E2] |
| > 10 nM | 1 to 10 nM | CC(c1nc(C(=O)Nc2cnoc2)c(O)c(=O)n1C)C(c1cnn(CCN2CCN(C)CC2)c1)c1ccccc1C#N (single isomer, unassigned) [Example 32 D1E2] |
| > 10 nM | > 10 nM | CC(c1nc(C(=O)Nc2cnoc2)c(O)c(=O)n1C)C(c1cnn(CCN2CCN(C)CC2)c1)c1ccccc1C#N (single isomer, unassigned) [Example 32 D2E2] |
| > 10 nM | > 10 nM | CC(c1nc(C(=O)Nc2cnoc2)c(O)c(=O)n1C)C(c1cnn(CCN(C)C)c1)c1ccccc1C#N (single isomer, unassigned) [Example 33 D1E2] |
| > 10 nM | > 10 nM | CC(c1nc(C(=O)Nc2cnoc2)c(O)c(=O)n1C)C(c1cnn(CCN(C)C)c1)c1ccccc1C#N (single isomer, unassigned) [Example 33 D2E1] |
| > 10 nM | > 10 nM | CC(c1nc(C(=O)Nc2cnoc2)c(O)c(=O)n1C)C(c1cnn(CCN(C)C)c1)c1ccccc1C#N (single isomer, unassigned) [Example 33 D2E2] |
| > 10 nM | > 10 nM | CC(c1nc(C(=O)Nc2cnoc2)c(O)c(=O)n1C)C(c1cnn(CCCN(C)C)c1)c1ccccc1C#N (single isomer, unassigned) [Example 34 D1E2] |
| > 10 nM | > 10 nM | CC(c1nc(C(=O)Nc2cnoc2)c(O)c(=O)n1C)C(c1cnn(CCCN(C)C)c1)c1ccccc1C#N (single isomer, unassigned) [Example 34 D2E2] |
| > 10 nM | > 10 nM | CC(c1nc(C(=O)Nc2cnoc2)c(O)c(=O)n1C)C(c1cnn(CCO)c1)c1ccccc1C#N (single isomer, unassigned) [Example 35 D1E2] |
| > 10 nM | 1 to 10 nM | CC(c1nc(C(=O)Nc2cnoc2)c(O)c(=O)n1C)C(c1cnn(CCO)c1)c1ccccc1C#N (single isomer, unassigned) [Example 35 D2E1] |
| > 10 nM | > 10 nM | CC(c1nc(C(=O)Nc2cnoc2)c(O)c(=O)n1C)C(c1cnn(CCO)c1)c1ccccc1C#N (single isomer, unassigned) [Example 35 D2E2] |
| > 10 nM | > 10 nM | CC(c1nc(C(=O)Nc2cnoc2)c(O)c(=O)n1C)C(c1cnn(CC(C)(C)O)c1)c1ccccc1C#N (single isomer, unassigned) [Example 36 D1E2] |

| IC50 (full length mouse TREX1) | IC50 (full length human TREX1) | SMILES |
| --- | --- | --- |
| > 10 nM | > 10 nM | CC(c1nc(C(=O)Nc2cnoc2)c(O)c(=O)n1C)C(c1cnn(CC(C)(C)O)c1)c1ccccc1C#N (single isomer, unassigned) [Example 36 D2E2] |
| > 10 nM | > 10 nM | COC(C)(C)Cn1cc(C(c2ccccc2C#N)C(C)c2nc(C(=O)Nc3cnoc3)c(O)c(=O)n2C)cn1 (single isomer, unassigned) [Example 37 D1E2] |
| > 10 nM | > 10 nM | COC(C)(C)Cn1cc(C(c2ccccc2C#N)C(C)c2nc(C(=O)Nc3cnoc3)c(O)c(=O)n2C)cn1 (single isomer, unassigned) [Example 37 D2E1] |
| > 10 nM | > 10 nM | CC(c1nc(C(=O)Nc2cnoc2)c(O)c(=O)n1C)C(c1cnn(C(F)F)c1)c1ccccc1C#N (single isomer, unassigned) [Example 38 D1E2] |
| > 10 nM | > 10 nM | CC(c1nc(C(=O)Nc2cnoc2)c(O)c(=O)n1C)C(c1cnn(C(F)F)c1)c1ccccc1C#N (single isomer, unassigned) [Example 38 D2E1] |
| > 10 nM | > 10 nM | CC(c1nc(C(=O)Nc2cnoc2)c(O)c(=O)n1C)C(c1cn(C)cn1)c1ccccc1C#N (single isomer, unassigned) [Example 39 D1E1] |
| > 10 nM | > 10 nM | CC(c1nc(C(=O)Nc2cnoc2)c(O)c(=O)n1C)C(c1cn(C)cn1)c1ccccc1C#N (single isomer, unassigned) [Example 39 D1E2] |
| > 10 nM | > 10 nM | CC(c1nc(C(=O)Nc2cnoc2)c(O)c(=O)n1C)C(c1cn(C)cn1)c1ccccc1C#N (single isomer, unassigned) [Example 39 D2E1] |
| > 10 nM | > 10 nM | Cn1cc(C(c2ccccc2C#N)C(c2nc(C(=O)Nc3cnoc3)c(O)c(=O)n2C)C(F)(F)F)cn1 (single isomer, unassigned) [Example 40 D1E1] |
| > 10 nM | > 10 nM | Cn1cc(C(c2ccccc2C#N)C(c2nc(C(=O)Nc3cnoc3)c(O)c(=O)n2C)C(F)(F)F)cn1 (single isomer, unassigned) [Example 40 D2E1] |
| > 10 nM | > 10 nM | Cc1nn(C)cc1C(c1ccccc1C#N)C(c1nc(C(=O)Nc2cnoc2)c(O)c(=O)n1C)C(F)(F)F (single isomer, unassigned) [Example 41 D1E1] |
| > 10 nM | 1 to 10 nM | Cc1nn(C)cc1C(c1ccccc1C#N)C(c1nc(C(=O)Nc2cnoc2)c(O)c(=O)n1C)C(F)(F)F (single isomer, unassigned) [Example 41 D2E1] |
| > 10 nM | > 10 nM | Cc1nn(C)cc1C(c1ccccc1C#N)C(c1nc(C(=O)Nc2cnoc2)c(O)c(=O)n1C)C(F)(F)F (single isomer, unassigned) [Example 41 D2E2] |
| > 10 nM | > 10 nM | Cc1nn(C)cc1C(c1cc(F)ccc1C#N)C(c1nc(C(=O)Nc2cnoc2)c(O)c(=O)n1C)C(F)(F)F (single isomer, unassigned) [Example 42 D1E1] |
| > 10 nM | > 10 nM | Cc1nn(C)cc1C(c1cc(F)ccc1C#N)C(c1nc(C(=O)Nc2cnoc2)c(O)c(=O)n1C)C(F)(F)F (single isomer, unassigned) [Example 42 D2E2] |
| > 10 nM | > 10 nM | Cc1ncc(C(c2ccccc2Cl)C(C)c2nc(C(=O)Nc3cnoc3)c(O)c(=O)n2C)cn1 (single isomer, unassigned) [Example 44 D2E1] |
| 1 to 10 nM | 1 to 10 nM | Cc1ccn(C(c2ccccc2Cl)C(C)c2nc(C(=O)Nc3cnoc3)c(O)c(=O)n2C)n1 (single isomer, unassigned) [Example 49 D1E1] |
